A value given as a limit tells only on which side of the number the result lay.

For this experiment, the system named is HIV-1 Ba-L or HIV-1 IIIB infection of the HOS cell line (expressing hCXCR4/hCCR5/hCD4/pHIV-LTR-luciferase). Put plainly: HOS HIV-1 Infectivity Assay. Particulars: Human immunodeficiency virus 1, HOS cells, luciferase readout, strain not given, read-out: Activity Level. It is filed as cell-based. Here is the method:
Compounds were profiled against two HIV-1 viruses, the M-tropic (CCR5 utilizing) Ba-L strain and the T-tropic (CXCR4 utilizing) IIIB strain. Ba-L was propagated in either peripheral blood lymphocytes or SupT1/CCR5+/CXCR4+ cells. IIIB was propagated in peripheral blood lymphocytes. Compounds were tested for their ability to block infection of the HOS cell line (expressing hCXCR4/hCCR5/hCD4/pHIV-LTR-luciferase) by either HIV-1 Ba-L or HIV-1 IIIB. Compound cytotoxicity was also examined in the absence of virus addition.
HOS cells (expressing hCXCR4/hCCR5/hCD4/pHIV-LTR-luciferase) were harvested and diluted in Dulbeccos modified Eagles media supplemented with 2% FCS to a concentration of 120,000 cells/ml. The cells were plated into 96-well plates (50 μl per well) and the plates were placed in a tissue culture incubator (370° C.; 5% CO2/95% air) for a period of 24 h.
Subsequently, 50 μl of the desired drug solution (2 times the final concentration) was added to each well and the plates were returned to the tissue culture incubator ([…]; 5% CO2/95% air) for 1 h. Following this incubation, 60 μl of diluted virus (4 times the final concentration) was added to 60 μl of 2× the final desired concentration of the compound and 100 μl this compound/virus mix was added to each well (approximately 2 million RLU per well of virus). The plates were returned to the tissue culture incubator ([…]; 5% CO2/95% air) and were incubated for a further 96 h.
Following this incubation the endpoint for the virally infected cultures was quantified following addition of Steady-Glo Luciferase assay system reagent (Promega, Madison, Wis.). Cell viability or non-infected cultures was measured using a CellTiter-Glo luminescent cell viability assay system (Promega, Madison, Wis.). All luminescent readouts are performed on a Topcount luminescence detector (Packard, Meridien, Conn.).
Take `CN(C)CCNCc1c(CN(C)C2CCCc3cccnc32)nc2ccccn12` (racemic) [Example 30, N,N-dimethyl-N′-[(2-{[methyl(5,6,7,8-tetrahydro-8-quinolinyl)amino]methyl}imidazo[1,2-a]pyridin-3-yl)methyl]-1,2-ethanediamine]: the IC50 lay within 100 to 500 nM.

As for `CN(Cc1nc2ccccn2c1-c1ccncc1)[C@H]1CCCc2cccnc21` [Example 1, (8S)-N-Methyl-N-{[3-(4-pyridinyl)imidazo[1,2-a]pyridin-2-yl]methyl}-5,6,7,8-tetrahydro-8-quinolinamine], the IC50 is less than 100 nM.

With `CN(Cc1nc2ccccn2c1CCCN)[C@H]1CCCc2cccnc21` [Example 2, (8S)-N-{[3-(3-Aminopropyl)imidazo[1,2-a]pyridin-2-yl]methyl}-N-methyl-5,6,7,8-tetrahydro-8-quinolinamine], the IC50 was less than 100 nM.

With `CN(C)CCCc1c(CN(C)[C@H]2CCCc3cccnc32)nc2ccccn12` [Example 3, (8S)-N-({3-[3-(Dimethylamino)propyl]imidazo[1,2-a]pyridin-2-yl}methyl)-N-methyl-5,6,7,8-tetrahydro-8-quinolinamine], the IC50 was less than 100 nM.

Turning to `CC(C)CNCCCc1c(CN(C)[C@H]2CCCc3cccnc32)nc2ccccn12` [Example 4, (8S)-N-Methyl-N-[(3-{3-[(2-methylpropyl)amino]propyl}imidazo[1,2-a]pyridin-2-yl)methyl]-5,6,7,8-tetrahydro-8-quinolinamine], the IC50 was less than 100 nM.

For the compound `CN(Cc1nc2ccccn2c1-c1cccnc1)[C@H]1CCCc2cccnc21` [Example 5, (8S)-N-Methyl-N-{[3-(3-pyridinyl)imidazo[1,2-a]pyridin-2-yl]methyl}-5,6,7,8-tetrahydro-8-quinolinamine], the IC50 was 100 to 500 nM.

Turning to `CN(C)Cc1c(CN(C)[C@H]2CCCc3cccnc32)nc2ccccn12` [Example 6, (8S)-N-({3-[(Dimethylamino)methyl]imidazo[1,2-a]pyridin-2-yl}methyl)-N-methyl-5,6,7,8-tetrahydro-8-quinolinamine], the IC50 was less than 100 nM.

In the case of `CN(C)CC(=O)NCc1c(CN(C)[C@H]2CCCc3cccnc32)nc2ccccn12` [Example 7, N^2,N^2-Dimethyl-N^1-{[2-({methyl[(8S)-5,6,7,8-tetrahydro-8-quinolinyl]amino}methyl)imidazo[1,2-a]pyridin-3-yl]methyl}glycinamide], the IC50 was less than 100 nM.

In the case of `CN(Cc1nc2ccccn2c1-c1ccc(N2CCOCC2)nc1)[C@H]1CCCc2cccnc21` [Example 8, (8S)-N-Methyl-N-({3-[6-(4-morpholinyl)-3-pyridinyl]imidazo[1,2-a]pyridin-2-yl}methyl)-5,6,7,8-tetrahydro-8-quinolinamine], the IC50 was in the range of 100 to 500 nM.

For the compound `CN(Cc1nc2ccccn2c1CN1CCCC1)[C@H]1CCCc2cccnc21` [Example 9, (8S)-N-Methyl-N-{[3-(1-pyrrolidinylmethyl)imidazo[1,2-a]pyridin-2-yl]methyl}-5,6,7,8-tetrahydro-8-quinolinamine], the IC50 was less than 100 nM.

For `CN(Cc1nc2ccccn2c1CN1CCOCC1)[C@H]1CCCc2cccnc21` [Example 10, (8S)-N-Methyl-N-{[3-(4-morpholinylmethyl)imidazo[1,2-a]pyridin-2-yl]methyl}-5,6,7,8-tetrahydro-8-quinolinamine], the IC50 lay within 100 to 500 nM.

Consider `CN(C)c1ccc(-c2c(CN(C)[C@H]3CCCc4cccnc43)nc3ccccn23)cn1` [Example 11, (8S)-N-({3-[6-(Dimethylamino)-3-pyridinyl]imidazo[1,2-a]pyridin-2-yl}methyl)-N-methyl-5,6,7,8-tetrahydro-8-quinolinamine], for which the IC50 is less than 100 nM.

On to `CN(Cc1nc2ccccn2c1CN1CCCCC1)[C@H]1CCCc2cccnc21` [Example 12, (8S)-N-Methyl-N-{[3-(1-piperidinylmethyl)imidazo[1,2-a]pyridin-2-yl]methyl}-5,6,7,8-tetrahydro-8-quinolinamine], for which the IC50 is less than 100 nM.

For `CN(C)C1CCN(Cc2c(CN(C)[C@H]3CCCc4cccnc43)nc3ccccn23)C1` (stereo partly drawn) [Example 13, (8S)-N-[(3-{[3-Dimethylamino-1-pyrrolidinyl]methyl}imidazo[1,2-a]pyridin-2-yl)methyl]-N-methyl-5,6,7,8-tetrahydro-8-quinolinamine], the IC50 is less than 100 nM.

Take `CN1CCN(c2ccc(-c3c(CN(C)[C@H]4CCCc5cccnc54)nc4ccccn34)cn2)CC1` [Example 14, (8S)-N-Methyl-N-({3-[6-(4-methyl-1-piperazinyl)-3-pyridinyl]imidazo[1,2-a]pyridin-2-yl}methyl)-5,6,7,8-tetrahydro-8-quinolinamine]: the IC50 was less than 100 nM.

As to `CN(Cc1nc2ccccn2c1-c1ccc(N2CCCC2)nc1)[C@H]1CCCc2cccnc21` [Example 15, (8S)-N-Methyl-N-({3-[6-(1-pyrrolidinyl)-3-pyridinyl]imidazo[1,2-a]pyridin-2-yl}methyl)-5,6,7,8-tetrahydro-8-quinolinamine], the IC50 lay in the range of 100 to 500 nM.

As for `CN(C)CCN(C)c1ccc(-c2c(CN(C)[C@H]3CCCc4cccnc43)nc3ccccn23)cn1` [Example 16, N,N,N′-trimethyl-N′-trimethyl-N′-{5-[2-({methyl[(8S)-5,6,7,8-tetrahydro-8-quinolinyl]amino}methyl)imidazo[1,2-a]pyridin-3-yl]-2-pyridinyl}-1,2-ethanediamine], the IC50 was 500 to 10000 nM.

`CN(C)C1CCN(c2ccc(-c3c(CN(C)[C@H]4CCCc5cccnc54)nc4ccccn34)cn2)C1` (stereo partly drawn) [Example 18, (8S)-N-[(3-{6-[3-(Dimethylamino)-1-pyrrolidinyl]-3-pyridinyl}imidazo[1,2-a]pyridin-2-yl)methyl]-N-methyl-5,6,7,8-tetrahydro-8-quinolinamine]: the IC50 is 500 to 10000 nM.

In the case of `COCCN(CCOC)Cc1c(CN(C)[C@H]2CCCc3cccnc32)nc2ccccn12` [Example 19, (8S)-N-{[3-({Bis[2-(methyloxy)ethyl]amino}methyl)imidazo[1,2-a]pyridin-2-yl]methyl}-N-methyl-5,6,7,8-tetrahydro-8-quinolinamine], the IC50 lay within 100 to 500 nM.

`CCN(CC)Cc1c(CN(C)[C@H]2CCCc3cccnc32)nc2ccccn12` [Example 20, (8S)-N-({3-[(Diethylamino)methyl]imidazo[1,2-a]pyridin-2-yl}methyl)-N-methyl-5,6,7,8-tetrahydro-8-quinolinamine]: the IC50 was in the range of 100 to 500 nM.

As for `COCCN(C)Cc1c(CN(C)[C@H]2CCCc3cccnc32)nc2ccccn12` [Example 21, (8S)-N-Methyl-N-{[3-({methyl[2-(methyloxy)ethyl]amino}methyl)imidazo[1,2-a]pyridin-2-yl]methyl}-5,6,7,8-tetrahydro-8-quinolinamine], the IC50 was in the range of 100 to 500 nM.

With `CC(C)N(C)Cc1c(CN(C)[C@H]2CCCc3cccnc32)nc2ccccn12` [Example 22, (8S)-N-Methyl-N-[(3-{[methyl(1-methylethyl)amino]methyl}imidazo[1,2-a]pyridin-2-yl)methyl]-5,6,7,8-tetrahydro-8-quinolinamine], the IC50 is less than 100 nM.

On to `CN1CCC(N(C)Cc2c(CN(C)[C@H]3CCCc4cccnc43)nc3ccccn23)C1` (stereo partly drawn) [Example 23, (8S)-N-Methyl-N-[(3-{[methyl(1-methyl-3-pyrrolidinyl)amino]methyl}imidazo[1,2-a]pyridin-2-yl)methyl]-5,6,7,8-tetrahydro-8-quinolinamine], for which the IC50 was less than 100 nM.

On to `CN1CCC(N(C)Cc2c(CN(C)[C@H]3CCCc4cccnc43)nc3ccccn23)CC1` [Example 24, (8S)-N-Methyl-N-[(3-{[methyl(1-methyl-4-piperidinyl)amino]methyl}imidazo[1,2-a]pyridin-2-yl)methyl]-5,6,7,8-tetrahydro-8-quinolinamine], for which the IC50 is less than 100 nM.

In the case of `CN(CC#N)Cc1c(CN(C)[C@H]2CCCc3cccnc32)nc2ccccn12` [Example 25, (Methyl{[2-({methyl[(8S)-5,6,7,8-tetrahydro-8-quinolinyl]amino}methyl)imidazo[1,2-a]pyridin-3-yl]methyl}amino)acetonitrile], the IC50 is less than 100 nM.

In the case of `CC(C)CN(C)Cc1c(CN(C)[C@H]2CCCc3cccnc32)nc2ccccn12` [Example 26, (8S)-N-Methyl-N-[(3-{[methyl(2-methylpropyl)amino]methyl}imidazo[1,2-a]pyridin-2-yl)methyl]-5,6,7,8-tetrahydro-8-quinolinamine], the IC50 is 100 to 500 nM.

As to `CN(CCC#N)Cc1c(CN(C)[C@H]2CCCc3cccnc32)nc2ccccn12` [Example 27, 3-(Methyl{[2-({methyl[(8S)-5,6,7,8-tetrahydro-8-quinolinyl]amino}methyl)imidazo[1,2-a]pyridin-3-yl]methyl}amino)propanenitrile], the IC50 is less than 100 nM.

As for `CN(C)c1cc(-c2c(CN(C)[C@H]3CCCc4cccnc43)nc3ccccn23)ccn1` [Example 28, (8S)-N-({3-[2-(Dimethylamino)-4-pyridinyl]imidazo[1,2-a]pyridin-2-yl}methyl)-N-methyl-5,6,7,8-tetrahydro-8-quinolinamine], the IC50 lay within 100 to 500 nM.

Values taken from US20100227880A1, “CHEMICAL COMPOUNDS” (priority 2006, published 2010).
